Marks after values point to notes of the source that are not given here.
How the values were obtained:
fertilized broiler eggs [1] = assay: Immunohistochemical analysis of muscle fiber CSA during in ovo myogenesis (Example 1); assay type: in vivo, chicken; conditions: 100 μl 250 mM NR in ovo at 11 d
Protocol: At 11-days of incubation, 60 fertilized broiler eggs were randomly assigned to completely randomized design with a 2×2 factorial arrangement. Factor 1 comprised treatment, with eggs injected with 100 μl of 0.9% sterile saline solution (NRNeg) or 250 mM NR in sterile saline (NRPos). Factor 2 comprised injection location, with treatments injected into the yolk or albumen. Eggs were incubated at 37±3° C. and a relative humidity of 40±2% for 7 days. Humidity was increased to 60±2% at the same temperature for the final 3 days of incubation. Twenty-four hours after hatching, chicks were euthanized by exposure to CO2 and decapitation. Measurements including chick weight and left Pectoralis major weight, length, and depth were taken for analysis. Immunohistochemical analysis was conducted to determine if NR supplementation increased muscle fiber cross-sectional area (CSA) during in ovo myogenesis. There were no Treatment×Location or Treatment and Location main effects for muscle fiber CSA (P>0.06). […] This is desired heavily in meat producing animals.

fertilized broiler eggs [2] = assay: In ovo NR injection at 11 days of incubation: chick weight and Pectoralis major measurements (Example 1); assay type: in vivo, chicken
Protocol: At 11-days of incubation, 60 fertilized broiler eggs were randomly assigned to completely randomized design with a 2×2 factorial arrangement. Factor 1 comprised treatment, with eggs injected with 100 μl of 0.9% sterile saline solution (NRNeg) or 250 mM NR in sterile saline (NRPos). Factor 2 comprised injection location, with treatments injected into the yolk or albumen. Eggs were incubated at 37±3° C. and a relative humidity of 40±2% for 7 days. Humidity was increased to 60±2% at the same temperature for the final 3 days of incubation. Twenty-four hours after hatching, chicks were euthanized by exposure to CO2 and decapitation. Measurements including chick weight and left Pectoralis major weight, length, and depth were taken for analysis.

[3] = tested on: Fertilized Cobb 500 broiler eggs; assay: Pectoralis major succinate dehydrogenase staining intensity (second Example VI); assay type: in vivo, chicken; conditions: 250, 500 or 1,000 mM NR; hatched chicks
Protocol: The methods of Noel et al. (2016) were followed for succinate dehydrogenase (SDH) staining. Slides were incubated at 37° C. for 1 h in a prewarmed incubation solution containing nitro blue tetrazolium solution, phosphate buffer, and sodium succinate solution. After washing in ultrapure water 3 times for 1 min each, 5 μL of 9:1 glycerol in PBS was placed on each cryosection and they were coverslipped for imaging. All cryosections were imaged at 200× magnification using a Nikon Eclipse TI-U inverted microscope (Nikon Instruments Inc., Melville, N.Y.). Immunohistochemistry photomicrographs were collected with a DS-QiMC digital camera (Nikon Instruments Inc.) and SDH cryosections were collected with a Nikon DS-Fil color digital camera (Nikon Instruments Inc.) White light intensity was kept constant for SDH photomicrographs. All photomicrograph collection and image analyses were conducted using NIS Elements Basic Software (Nikon Instruments Inc.). Cross-sectional area (CSA) of a minimum of 1,000 muscle fibers per chick was determined as the area within the dystrophin border. The number of satellite cell was determined as nuclei co-staining for Pax 7 and Hoechst dye located at the periphery of muscle fiber. A minimum of 50 muscle fiber bundles per chick were analyzed for SDH mean intensity using the same software. […]

growing pigs = assay: Longissimus lumborum NAD+ content (Example III); assay type: in vivo, pig
Protocol: Nine growing pigs were blocked by bodyweight (BW) and placed in metabolism crates. After a 3-day acclimation period, pigs within each BW block were randomly assigned to a treatment (n=3 pigs/treatment). Treatments comprised pigs supplemented 0, 15, or 30 mg/kg BW NR for 7 days. Pigs were allowed ad libitum access to a standard growing diet and water. Treatments were administered daily at 8 a.m. by mixing NR in 20 mL of Karo® dark syrup and orally drenching the pigs. On day 0 and 3 of the trial, muscle biopsies of the LL were taken for NAD+ analysis using standard procedures. At day 7, pigs were transported to the Kansas State University Meats Laboratory and euthanized by a captive penetrating bolt to the brain, followed by exsanguination. Following harvest procedures, 3 g of the LL were collected for NAD+ analysis. Twenty-four hours after harvest, the whole LL not sampled at harvest was removed from the carcass and aged 10 days. After aging, the LL was cut into 6 chops for retail color stability analysis, including 6-day surface oxy- and metmyoglobin percentage, 6-day objective and subjective color panel evaluation, and day 4 and 6 metmyoglobin reducing ability (MRA).

[4] = tested on: Fertilized broiler eggs (Cobb 500); assay: NR concentration on avian embryonic myogenesis, d 19 embryo morphometrics (Example II); assay type: in vivo, chicken; conditions: 100 μl into yolk d 10, d 19 embryos
Protocol: Fertilized broiler eggs (n=60; Cobb 500) were randomly assigned to 1 of 4 treatments: 0.0, 250, 500, or 1,000 mM NR in sterile saline. At day 10 of incubation, 100 μl of treatment solution was injected into the egg yolk. Eggs were incubated at 37±3° C. and a relative humidity of 40±2%. At day 19 of incubation, embryos were euthanized by prolonged exposure to CO2 gas and decapitation. Measurements including: embryo weight; crown-rump length; chest circumference (CC); and left Pectoralis major (PM) weight, length, width, and depth were collected.

[5] = 100 μl 250 mM NR into yolk at 11 d, chicks 24 h after hatching

## NC(=O)c1ccc[n+]([C@@H]2O[C@H](CO)[C@@H](O)[C@H]2O)c1 [Nicotinamide riboside, nicotinamide riboside]
Fertilized broiler eggs [1]
  Muscle fiber cross-sectional area (CSA): did not increase
Fertilized broiler eggs [2]; 100 μl 250 mM NR at 11 d, treatment main effect (yolk and albumen)
  Pectoralis major depth vs NRNeg: thicker muscles
Fertilized broiler eggs [2]; 100 μl 250 mM NR into albumen at 11 d, chicks 24 h after hatching
  Chick weight and Pectoralis major weight and length vs NRNeg: no differences
Fertilized broiler eggs [2]; [5]
  Chick weight vs NRNeg: tended to weigh more
  Pectoralis major length vs NRNeg: longer
  Pectoralis major weight vs NRNeg: weighed more
[3]
  SDH staining intensity: no treatment effect
Growing pigs; 15 mg/kg
  Day 3 NAD+ change, percent change: 28.55^b,x Percent
  Day 3 NAD+ change, total: 2.10^b pMol/g tissue
  Day 7 NAD+ change, percent change: 35.29^b,x Percent
  Day 7 NAD+ change, total: 2.72^b pMol/g tissue
Growing pigs; 15 mg/kg group, Day 0 (before supplementation)
  NAD+: 7.70 pMol/g tissue
Growing pigs; 15 mg/kg, Day 7
  NAD+: 10.42 pMol/g tissue
Growing pigs; 15 mg/kg, middle column group (Day 3, head not given)
  NAD+: 9.80 pMol/g tissue
Growing pigs; 30 mg/kg
  Day 3 NAD+ change, percent change: 6.43^a,b,y Percent
  Day 3 NAD+ change, total: 0.71^a,b,y pMol/g tissue
  Day 7 NAD+ change, percent change: 10.92^a,b,y Percent
  Day 7 NAD+ change, total: 0.93^a,b,y pMol/g tissue
Growing pigs; 30 mg/kg group, Day 0 (before supplementation)
  NAD+: 8.60 pMol/g tissue
Growing pigs; 30 mg/kg, Day 7
  NAD+: 9.53 pMol/g tissue
Growing pigs; 30 mg/kg, middle column group (Day 3, head not given)
  NAD+: 9.31 pMol/g tissue
[4]; 250 mM NR
  Body weight: 46.42 g
  Chest circumference: 6.0^a,b cm
  Crown to rump length: 83.69^a mm
  Head circumference: 5.3^a cm
  Head length: 17.70 mm
  Head width: 15.42 mm
  Organ weight, heart: 0.23 g
  Organ weight, liver: 0.74 g
  Pectoralis major length: 16.73^b mm
  Pectoralis major maximum thickness: 2.56^b mm
  Pectoralis major weight: 0.13^a,b g
  Pectoralis major width: 4.90^a,b mm
[4]; 500 mM NR
  Body weight: 46.25 g
  Chest circumference: 6.3^b cm
  Crown to rump length: 85.14^a mm
  Head circumference: 5.6^b cm
  Head length: 17.60 mm
  Head width: 15.49 mm
  Organ weight, heart: 0.23 g
  Organ weight, liver: 0.72 g
  Pectoralis major length: 17.51^b mm
  Pectoralis major maximum thickness: 2.36^a,b mm
  Pectoralis major weight: 0.16^b g
  Pectoralis major width: 5.32^b mm
[4]; 1,000 mM NR
  Body weight: 45.97 g
  Chest circumference: 6.6^b cm
  Crown to rump length: 88.20^b mm
  Head circumference: 5.7^b cm
  Head length: 17.98 mm
  Head width: 15.69 mm
  Organ weight, heart: 0.24 g
  Organ weight, liver: 0.67 g
  Pectoralis major length: 17.44^b mm
  Pectoralis major maximum thickness: 2.64^b mm
  Pectoralis major weight: 0.15^b g
  Pectoralis major width: 5.61^b mm
